Marks after values point to notes of the source that are not given here.
How the values were obtained:
[1] = Pharmacokinetics from total plasma levels (tMPA, tMPAG), LC-MS/MS; type: in vivo, human; conditions: total plasma level
Experimental: (§1) The AUC0–4, Tmax, and Cmax parameters were calculated using the R (version 4.5.1) package software (R Core Team, 2025), supported by RStudio (version 2025.05.1+513) from Posit PBC software (Boston, MA, USA). […] The vMPA and vMPAG capillary blood levels were corrected using formulas validated in our department (partially published by Kocur et al.) and expressed as estimated capillary plasma concentrations. […] Individual PK profiles for each patient included in the study are provided in the Supplementary File (Figures S4 and S5).
Briefly, 50 μL of plasma was diluted with 90 μL of deionized water, and 10 μL of IS (d3-MPA) was added. Next, 400 μL of the precipitation mixture (a 0.1 M aqueous zinc sulfate solution and acetonitrile, 50:50 (v/v)) was added. The sample was then shaken for 10 min at room temperature using an automatic rotary vortex (Ohaus, Parsippany, NJ, USA) and centrifuged for 10 min at 13,500× g at 4 °C thereafter. The supernatant was transferred into chromatographic vials and analyzed using LC-MS/MS. Sample processing was performed at the Department of Drug Chemistry, Pharmaceutical and Biomedical Analysis, Medical University of Warsaw, Poland.
(§2) From each patient (if they consented to all sampling types), four samples were collected simultaneously at all defined time points of the dynamic PK profile (0, 0.5, 1, 2, and 4 h after drug administration). Whole blood was collected using standard venipuncture by a phlebotomist into a K3-EDTA test tube (Sarstedt, Nümbrecht, Germany). Plasma for analytical determination was obtained by centrifuging a portion of the whole blood and stored at −40 °C until assay. At the same time, 10 µL capillary blood samples were collected from a finger prick using the Mitra™ device (VAMS samples were stored in light-protected aluminum zip bags with desiccant at room temperature).

[2] = Pharmacokinetics from plasma unbound levels in plasma ultrafiltrate (fMPA, fMPAG); type: in vivo, human; conditions: free level in plasma ultrafiltrate
Experimental: as §1
Next, the sample was centrifuged at 3000× g for 5 min at ambient conditions, and the supernatant was transferred into a chromatographic vial. Sample processing was performed at the Department of Drug Chemistry, Pharmaceutical and Biomedical Analysis, Medical University of Warsaw, Poland.
as §2

[3] = Pharmacokinetics from liquid (wet) saliva collected with Salivette (sMPA, sMPAG); type: in vivo, human
Experimental: as §1
The concentrations of sMPA and sMPAG in saliva were determined using a previously described LC-MS/MS method. Briefly, 100 µL of saliva was used for analysis. […] Samples were vortexed and evaporated to dryness. The dry residues were reconstituted in 100 μL of a mobile phase consisting of a 1:4 (v/v) mixture of methanol and water, both of which contained 0.1% formic acid. After double centrifugation, the samples were analyzed using a Shimadzu Ultra-Performance Liquid Chromatography (UPLC) system (Shimadzu Co., Kyoto, Japan) coupled with a triple quadrupole mass spectrometer (LCMS-8030; Simadzu Co., Kyoto, Japan). The method was linear over the concentration range of 2–500 μg/L for both sMPA and sMPAG. This part of the work was carried out with the support of the Centre of Innovative Pharmaceutical Technology, Poznan University of Medical Sciences (Poznan, Poland).
Additionally, the unstimulated saliva samples were simultaneously collected using the Salivette® device (Sarstedt, Nümbrecht, Germany) and Mitra™ 20 µL microsampling tips (Neoteryx/Trajan, Torrance, CA, USA (all saliva samples simultaneously to plasma and capillary blood sampling: 0, 0.5, 1, 2, and 4 h after drug administration). Patients had not eaten for at least 30 min before saliva collection, and their mouths were rinsed with water. The study was conducted in accordance with the Declaration of Helsinki and the International Council for Harmonization Guideline for Good Clinical Practice. The protocol was approved by the Bioethics Committee of the Children’s Memorial Health Institute, Warsaw, Poland (approval No. 15/KBE/2023, with subsequent amendments). Written informed consent was obtained from all participants and their legal guardians.

[4] = Pharmacokinetics from capillary blood collected with Mitra VAMS (vMPA, vMPAG); type: in vivo, human
Experimental: as §1
Subsequently, the tip (after at least 1 h of drying) was placed in an 1.5 mL Eppendorf-type test tube (Eppendorf AG, Hamburg, Germany) containing 150 μL of pure deionized water. Next, the test tube was shaken at room temperature for 1 h using the automatic rotary vortex. Subsequently, 10 μL of IS solution and 150 μL of the precipitation mixture were added. The sample was then processed as described in Section 4.3.4. Sample processing was carried out at the Department of Drug Chemistry, Pharmaceutical and Biomedical Analysis, Medical University of Warsaw, Poland [21].
as §2

[5] = Stability of analytes in dried saliva Mitra VAMS tips; type: physicochemical; conditions: room temperature (with daily light exposure), n=6
Experimental: Stability testing, a crucial component of method development and validation, was conducted through various experiments, including storage stability in the autosampler and stability of analytes in VAMS tips under different stress conditions. Analyte stability is deemed acceptable if the differences stay within the nominal range of ±15%. Additionally, the reproducibility of the injection was assessed during autosampler stability testing.

[6] = cited from earlier work
[7] = 0 h (pre-dose), n = 20, mean ± SD
[8] = 0.5 h post-dose, n = 20, mean ± SD
[9] = 1 h post-dose, n = 20, mean ± SD
[10] = 2 h post-dose, n = 20, mean ± SD
[11] = 4 h post-dose, n = 20, mean ± SD
[12] = normalized to MMF dose, n = 20, mean (range)
[13] = pediatric renal transplant recipients (n = 20) on MMF (CellCept), steady state, 0–4 h post-dose, mean (range)
[14] = pediatric renal transplant recipients (n = 20) on MMF, mean (range)
[15] = wet saliva, pediatric renal transplant recipients (n = 20) on MMF, mean (range)

Question: With `COc1c(C)c2c(c(O[C@@H]3O[C@H](C(=O)O)[C@@H](O)[C@H](O)[C@H]3O)c1C/C=C(\C)CCC(=O)O)C(=O)OC2` [MPAG, mycophenolic acid glucuronide] as the molecule, how does the C0 concentration [1, 7] read?
Answer: 23805 ± 12320 ng/mL

Question: And the C0.5 concentration [1, 8]?
Answer: 37800 ± 17081 ng/mL

Question: What about the C1 concentration [1, 9] of the same molecule?
Answer: 48.647 ± 22.134 mg/L

Question: What about the C2 concentration [1, 10] of the same molecule?
Answer: 34.258 ± 13.977 mg/L

Question: What about the C4 concentration [1, 11] of the same molecule?
Answer: 27.075 ± 12.413 mg/L

Question: What about the “AUC(0–4) Normalized to Drug Dose” value [1, 12] of the same molecule?
Answer: 384.94 (106.81–1050.08) ^d mg × h/mL × g

Question: And the Cmax [1, 13]?
Answer: 49.54 (19.24–109.28) mg/L

Question: And the AUC(0–4) [1, 14]?
Answer: 144000 ng·h/mL

Question: What about the Tmax [1, 14] of the same molecule?
Answer: 1.33 (0.50–2.00) h

Question: What about the C0 concentration [2, 7] of the same molecule?
Answer: 3893 ± 2073 ng/mL

Question: And the C0.5 concentration [2, 8]?
Answer: 6264 ± 4238 ng/mL

Question: What about the C1 concentration [2, 9] of the same molecule?
Answer: 8.029 ± 4.393 mg/L

Question: And the C2 concentration [2, 10]?
Answer: 6.889 ± 3.791 mg/L

Question: What about the C4 concentration [2, 11] of the same molecule?
Answer: 4.701 ± 2.218 mg/L

Question: And the “AUC(0–4) Normalized to Drug Dose” value [2, 12]?
Answer: 66.47 (19.97–195.68) ^d mg × h/mL × g

Question: And the Cmax [2, 13]?
Answer: 8.98 (3.85–19.81) mg/L

Question: What about the AUC(0–4) [2, 14] of the same molecule?
Answer: 25200 ng·h/mL

Question: What about the Tmax [2, 14] of the same molecule?
Answer: 1.55 (0.50–2.00) h

Question: What about the Cmax ([3]; wet saliva (unstimulated, Salivette), pediatric renal transplant recipients (n = 20) on MMF, 0–4 h post-dose, mean (range)) of the same molecule?
Answer: 73.74 (22.00–146.00) µg/L

Question: And the C0 concentration ([3]; wet saliva, 0 h (pre-dose), n = 20, mean ± SD)?
Answer: 19.135 ± 12.712 ng/mL

Question: What about the C0.5 concentration ([3]; wet saliva, 0.5 h post-dose, n = 20, mean ± SD) of the same molecule?
Answer: 39.659 ± 26.611 ng/mL

Question: And the C1 concentration ([3]; wet saliva, 1 h post-dose, n = 20, mean ± SD)?
Answer: 70.173 ± 44.943 µg/L

Question: What about the C2 concentration ([3]; wet saliva, 2 h post-dose, n = 20, mean ± SD) of the same molecule?
Answer: 39.371 ± 25.210 µg/L

Question: And the C4 concentration ([3]; wet saliva, 4 h post-dose, n = 20, mean ± SD)?
Answer: 22.417 ± 15.097 µg/L

Question: And the “AUC(0–4) Normalized to Drug Dose” value ([3]; wet saliva, normalized to MMF dose, n = 20, mean (range))?
Answer: 352.10 (119.88–857.42) ^c µg × h/mL × g

Question: And the AUC(0–4) [3, 15]?
Answer: 158 ng·h/mL

Question: What about the Tmax [3, 15] of the same molecule?
Answer: 1.08 (0.50–2.00) h

Question: What about the C0 concentration [4, 7] of the same molecule?
Answer: 22481 ± 10350 ng/mL

Question: What about the C0.5 concentration [4, 8] of the same molecule?
Answer: 34340 ± 14354 ng/mL

Question: And the C1 concentration [4, 9]?
Answer: 44.003 ± 20.520 mg/L

Question: What about the C2 concentration [4, 10] of the same molecule?
Answer: 34.039 ± 12.356 mg/L

Question: What about the C4 concentration [4, 11] of the same molecule?
Answer: 25.381 ± 11.908 mg/L

Question: What about the AUC(0–4) ([4]; corrected to estimated capillary plasma concentration, n = 20, mean (range)) of the same molecule?
Answer: 133000 ng·h/mL

Question: What about the Cmax ([4]; corrected to estimated capillary plasma concentration, pediatric renal transplant recipients (n = 20) on MMF, mean (range)) of the same molecule?
Answer: 47.73 (19.80–110.76) mg/L

Question: What about the “AUC(0–4) Normalized to Drug Dose” value [4, 12] of the same molecule?
Answer: 361.35 (100.49–1064.33) ^d mg × h/mL × g

Question: And the Tmax [4, 14]?
Answer: 1.38 (0.50–2.00) h

Question: And the “stability, mean recovery” value ([5]; HQC, 1 week)?
Answer: 96.66%

Question: And the “stability, mean recovery” value ([5]; HQC, 2 weeks)?
Answer: 94.51%

Question: What about the “stability, mean recovery” value ([5]; HQC, 24 hours) of the same molecule?
Answer: 100.16%

Question: And the “stability, mean recovery” value ([5]; HQC, 3 days)?
Answer: 98.94%

Question: And the “stability, mean recovery” value ([5]; LQC, 1 week)?
Answer: 99.67%

Question: What about the “stability, mean recovery” value ([5]; LQC, 2 weeks) of the same molecule?
Answer: 97.25%

Question: And the “stability, mean recovery” value ([5]; LQC, 24 hours)?
Answer: 103.15%

Question: And the “stability, mean recovery” value ([5]; LQC, 3 days)?
Answer: 100.46%

Question: And the “increase of concentration in severe renal impairment” value ([6]; patients with severe renal impairment, up)?
Answer: 3–6 fold

Question: And the “time of peak plasma concentration after administration” value ([6]; plasma)?
Answer: 1 to 4 h

Question: And the binding to albumin ([6]; stable transplant recipients)?
Answer: approximately 82%

Source: publication PMC12655819 (Pharmaceuticals, 2025)
